Test results: patent US20060257875A1, “Affinity screening using "one-bead-one-compound" libraries” (Carlsberg A/S, priority 2003, published 2006)
Several values for one entry are separate records, joined by “and”; a condition that tells them apart may be missing. Equal entries are not always repeated. Entries after “also recorded” stand apart in the source; their conditions may differ. Starred links: 1 amine or outer side, 2 acyl side, 3 side chain; linkers in the order of their positions; H or OH if unused. Non-standard residues stand in square brackets, D forms with d. Primed or numbered codes have the meaning given here. No end group written: not given here. Pip′ = 4-phenyl-piperidine-4-carboxylic acid, O=C(C1(c2ccccc2)CCN([*:1])CC1)[*:2]; Abi = 3-amino-3-(biphenyl)-propanoic acid; 3Pal = N[C@@H](Cc1cccnc1)C(=O)O; GlcNN = not defined here; Acm′ = not defined here; ManN = not defined here; ManS = not defined here

Test system: six protein mixture: Con A, P. sativum lectin, L. culinaris lectin, W. floribunda lectin, Glyceraldehyde 6-phosphate, bovine serum albumin
Experiment: Solid phase screening of Library 3 with labeled six protein mixture; affinity purification, gel electrophoresis and Edman degradation
Type: binding
Details: not given

Row | Molecule | selectivity of binding among the lectins
1 | GlcNN-Trp-Phe-Asp-Trp-Pro ([GlcNN]WFDWP; reading uncertain) | binds only to Con A and not to the other lectins

Same assay, conditions: Library 3 ligand on PEGA6000 resin; six protein mixture

Row | Molecule | Identified Protein(s)
2 | GlcNN-Trp-Phe-Asp-Trp-Pro ([GlcNN]WFDWP; reading uncertain) | Con A
3 | GlcNN-Val-GlcNN-His-ManS-Gly | Con A, P. sativum; also recorded: lectin
4 | HTWGYW | Con A
5 | ManN-Phe-Trp-Ser-Lys-His ([ManN]FWSKH; reading uncertain; also: printed as ManN-Phe-Trp-Ser-Lys-His) | Con A, P. sativum; also recorded: lectin
6 | ManS-Gly-ManS-Asp-Asn-Ala ([ManS]G[ManS]DNA; reading uncertain; also: printed as ManS-Gly-ManS-Asp-Asn-Ala) | Con A, P. sativum; also recorded: lectin

Same assay, conditions: six protein mixture

Row | Molecule | selectivity of binding among the lectins
7 | HTWGYW | binds selectively to Con A

Test system: normal (basal) myocyte protein mixtures
Experiment: Solid phase screening of Library 1 with labeled myocyte proteins; bound proteins identified by on-bead digest and peptide mass fingerprinting
Type: binding, neonatal Wistar rats
Details: Library 1 ligand on PEGA4000 bead; Normal Myocytes; proteins primarily present in basal cells
Experimental: (§1) Myocytes were prepared from 1 to 5 day old neonatal Wistar rats (University of Copenhagen) according to literature procedure described in Busk et al., 2002, Cardiovasc. Res., 56: 64-75 and plated into eight P10 culture plates at 6 million cells/plate.
(§2) Protein was extracted from myocytes prepared as described above for Example 9, using a new procedure modified from existing protocols, primarily: Arrott, et al., 1998, Anal Biochem. 258: 1-18. The media was removed from plates and adhered cells were treated for 10 minutes with ice cold phosphate buffer (0.25 mL, 10 mM, pH 7.5, augmented with 0.15 M NaCl 60 mM Benzamidine HCl, 5 mM EDTA, 10 μg/n E-64, 10 μg/mL Leu-peptin, 10 μg/mL Pepstatin A, and 1 mM PMSF). The cells were scraped off the plates and then lysed (on ice) in a sonicator (2×) using 10 seconds off/10 seconds on cycles.
(§3) The resulting suspension was augmented with CHAPS, DTT, and urea to a final concentration of CHAPS (1% w/v), DTT (5 mM), and urea (8 M). After 10-15 minutes on ice, the solution was centrifuged for 10 minutes at 15,000 rpm at 4° C. The supernatant was removed and protein content quantified using the NanoOrange Protein test (Molecular Probes, Eugene, Oreg.): Total protein recovered: 70.5 μg for PE-treated cells and 60 μg for basal cells.
(§4) Fluorescent dye Oregon Green 514 (OR) (Molecular Probes) was used to label the healthy/basal cells while Rhodamine Red (RR) (Molecular Probes) was used to label the PE-treated cells. The labeling procedures were carried out according to the manufacturer's protocol. The protein solutions (0.25 mL, 50.4 μg for PE cells and 0.25 mL, 42.8 μg for basal cells) were dialyzed against a solution of 10 mM phosphate buffer, 0.15 M NaCl, pH 7.5 and then 1 M NaHCO3 (0.025 mL) added to a final pH of 8.5. 10 μL of dye in dry DMF (10 mg/mL) was added and the sample stirred at room temperature for 2 hours. The protein solution was dialyzed extensively against 10 mM phosphate buffer, 0.15 M NaCl, pH 7.5, to remove excess dye.
(§5) Ligand library 1 (200 mg), prepared as described for Example 5, was transferred to a syringe fitted with a stop-valve and the ligand-beads were washed for 10 minutes (3×) with 10 mM phosphate buffer, pH 6.8, supplemented with 0.15 M NaCl, 1 mM Ca^2+, 1 mM Zn^2+, 1 mM Mn^2+, 1 mM Cu^2+, and 1 mM Mg^2+ (3 mL). The ligand-beads were treated with a 1% BSA solution for 30 minutes, then washed with buffer (1×). A mixture of labeled myocyte proteins, including both PE-induced protein (138 μL, 40 μg) and basal protein (167 μL, 40 μg) obtained as described above for Example 11, was prepared in 1.2 mL buffer, and added to the ligand library in the syringe. The proteins and ligand library were incubated at room temperature for 16 hours. The library was then washed with buffer for 5 minutes then with water for 3×5 minutes. The library was examined under a fluorescence microscope and brightly fluorescent red, green, and yellow beads (yellow indicative of both dyes red and green binding; the majority of the beads) were present, as well as unlabelled beads. The fluorescent beads were separated and retained for analysis.
(§6) The fluorescent ligand library beads containing bound protein obtained as described in Example 15 were sorted using a COPAS (250) NF Bead Sorter (Union Biometrica, Somerville, Mass.) equipped with a single flourescence emission. Beads emitting fluorescence of only one color contain proteins from one physical state, e.g. proteins expressed only in the PE-induced hypertrophic state (red) or proteins expressed only in the basal state (green). Since the instrument measures one fluorescence emission at a time, beads containing one type of color fluorescence were first sorted and then beads were resorted for emissions from the other fluorescence color. The library was first sorted such that all beads containing significant green fluorescence, basal proteins from healthy myocytes, were isolated. […]

Row | Molecule | Identified Protein(s)
8 | FTYFAK | Serine/threonine Protein kinase (gi 5730055); Carbonic; also recorded: anhydrase VII (gi 10304383)
9 | His-Tyr-Pip-Thr-Acm-Abi (HY[Pip′]T[Acm′][Abi]; reading uncertain; also: printed as His-Tyr-Pip-Thr-Acm-Abi) | Chain C P27 cyclin A-CDK2 complex: (Cyclin A?) (gi and 2392395); Hypothetical protein XP_154035.
10 | Phe-Gua-Asp-Abi-His-Aze | Hypothetical protein XP_043250 (gi 14773490)
11 | Phe-Phe-Phe-Pip-Aze-Gua | Phosphatidyl choline-sterol acyl transferase (400167;; also recorded: LCAT-PIG_9)
12 | Phe-Ppy-Acc-Ala-Ppy-Hpy | Hypothetical proteins; Troponin T gi 547047;; (Phospho-; also recorded: lipase C (MA); Phosphatidyicholine sterol acyl trans-; also recorded: ferase (400167;LCAT-PIG_9))
13 | Phe-Thr-Pya-Pip-Asp-His (FT[3Pal][Pip′]DH) | (Sodium channel (gi 18591322) (M); Chloride channel (gi and 6978663/4502867) (M)) Troponin I (gi 1351298);; Zn Fin- and ger protein (gi 18591322) (MA); SPTR (peroxisomal Ca and dependent solute carrier (putative) (gi 12853685); and Beta-2 adnergic receptor (gi 12699028)
14 | Pip-Pal-Pal-Phe-Pya-Pip | 544086) (M); Ribosomal proteins (60s) (gi 21426891); and SPTR (gi 20837095) (M) and Ca2+/Calmodulin activated Myosin light chain kinase (gi and 284660) (LA, MA); Regulator of G-Protein Signalling and (RGS14) variant (gi 2708808) ATP Synthase component and (subunit e) (gi 258788) (M);; Cytochrome P450 (gi
15 | Pya-Gua-Pip-Acc-Phe-Pip | NADH dehydrogenase; ATP binding component (gi 18598538); also recorded: (M); Myosin heavy polypeptide 9 (gi 13543854); Histone; also recorded: associated proteins (gi 20893760) (M)
16 | Pya-Hyp-Hyp-Phe-Acm-Tyr | Troponin T (gi 547047); Ca2+/Calmodulin activated My-; also recorded: osin light chain kinase (gi 284660) (LA, MA); cGMP-; also recorded: dependent protein kinase (gi 284660) (LA)

Test system: phenylephrine (PE)-treated myocyte proteins
Experiment: as above
Type: binding, neonatal Wistar rats
Details: Library 1 ligand on PEGA4000 bead; Phenylephrine Treated (Hyperthrophic) Myocytes
Experimental: as §1, §2, §3, §4, §5, §6

Row | Molecule | Identified Protein(s)
17 | Abi-Phe-Abi-Phe-Che-Tyr | Cathepsin E (gi 4503145); Ribosomal proteins (60s L; also recorded: series) (gi 20826861)

Test system: basal myocyte protein
Experiment: Solid phase screening of Library 6 with unlabeled myocyte proteins; silver staining, on-bead tryptic digest
Type: binding, neonatal Wistar rats
Details: Normal Myocytes
Experimental: as §1
Isolated proteins that bound to specific ligands were identified using peptide mass fingerprinting. Mass spectra were recorded on a Bruker Reflex m MALDI time-of-flight mass spectrometer (Bruker-Daltonics, Bremen, Germany) operated in the positive reflectron mode using delayed extraction. Measurements were performed using the following parameters: Power 83-84 V; lens 7.300. The sum of 200-300 shots was used for each spectrum.
The spectra were calibrated using bradykinin peptide. In some cases, internal mass calibration was performed using a porcine trypsin autolysis product Peptide masses were searched against peptide mass maps in the National Center for Biotechnology Information (NCBI) database using the following search engines found on the world wide web (www.) for each of: • MS-FIT (prospector.ucsf.edu/ucsfhtml/msfit.htm), • Profound (129.85.19.192/profound_biniWebProFound.exe), and • MASCOT (matrixscience.com).
A search was performed using the NCBI bacterial (E. coli) database and the mammalian databases for the isolated proteins from the E. coli and myocyte samples, respectively, and the Swiss Prot mammalian databases and the Swiss Prot viral databases were searched to identify the porcine macrophage proteins and proteins, respectively. A molecular mass range was estimated from 0-250 K Da, allowing a mass accuracy that varied from 0.1 Da (some cases 0.3 Da) for each peptide mass. A large pI range from 0-14 or 0-12 was considered for each search. If no proteins matched, the mass window was extended. Partial enzyme cleavages allowing for two missed cleavage sites and modification of cysteine by alkylation were considered in the search approaches. A protein was considered identified if the matched peptides covered at least 30% of the complete sequence. A match of less than 30% was considered in some cases, if prominent peaks were obtained. Usually, four or more peptides were used for identification. In some instances, hypothetical proteins or gene products, such as biochemical material, either RNA or protein, calculated from the expected expression of a gene and to which a function may be assigned based on sequence homology, were identified.
Protein was extracted from myocytes prepared as described above for Example 9, using a new procedure (to preserve the activity of metalloproteases) modified from existing protocols, primarily: Amott, et al., 1998, Anal. Biochem. 258: 1-18. The media was removed from plates and cells were washed with ice cold phosphate buffer (5 ml, 10 mM, pH 7.5, supplemented with 0.15 M NaCl,) to remove traces of media components. The adhered cells were treated for 10 minutes with ice cold phosphate buffer (2 mL, 10 mM, pH 7.5, augmented with 0.15 M NaCl, […] E-64, 10 μg/mL Leupeptin, and 10 μg/mL Pepstatin A). The cells were scraped off the plates and then lysed (on ice) in a sonicator (2×) using 10 seconds off/110 seconds on cycles.
The resulting suspension was augmented with CHAPS (1% w/v), KCl (50 mM), NaCl (0.5 M), ZnCl2 (0.1 mM), DTT (5 mM), and urea (2 M). After 10-15 minutes on ice, the solution was centrifuged for 10 minutes at 15,000 rpm at 4° C. The supernatant was removed and protein content quantified using the NanoOrange Protein test (Molecular Probes, Eugene, Oreg.): Total protein recovered: 195 μg for PE-induced cells and 200 μg for basal cells.
The protein solutions were dialyzed extensively against 20 mM MES (2-[N-Morpholino]ethanesulfonic acid) buffer pH 6.0, supplemented with 0.15 M NaCl and 1 mM ZnCl2 to remove excess detergent and urea. […]

Row | Molecule | Identified Protein(s)
18 | CC(C)C(NC(CCCCN)C(=O)N1CCN(C(=O)OC(C)(C)C)CC1)C(C)C (stereo not drawn) | Angiotensin converting enzyme (P22967).
19 | CCC(CCO)NC(CCCCN)C(=O)N1CCN(C(=O)OC(C)(C)C)CC1 (stereo not drawn) | Angiotensin converting enzyme (P22967).
20 | CCOC(=O)C1CCCCC1NC(CCCCN)C(=O)NC(CCCCNC(=O)OC(C)(C)C)C(=O)O (stereo not drawn) | Angiotensin converting enzyme (P22967); U2 nuclear ribonuceoprotein zuxiliary factor (gi 2842676).
21 | CCCCCCNC(=O)C(CCCCN)NC1CCCCC1C(=O)OCC (stereo not drawn) | Inward rectifier potassium channel 13 (Q9QZ65, IRKD_CAVPO); Sulfonylurea receptor 2 (Q63563); small conductance potassium channel (P58391).
22 | CCCCCCNC(=O)C(CCCCN)NC(CC)CCO (stereo not drawn) | Myosine heavy chain, nonmuscular type (AQ62812); Hypothetical protein E330017A01 (XP-148690.1).
23 | CCOC(=O)C(CCc1ccccc1)NC(CCCCN)C(=O)N[C@@H](C)C(=O)O (stereo partly drawn) | Testase 1 or disintegrin 5 containing metalloproteinase domain 24 (gi 31981793); ADP-ribosylation factor like protein 8 (Q96KC2).
24 | CCOC(=O)C1CCCCC1NC(CCCCN)C(=O)N[C@@H](C)C(=O)O (stereo partly drawn) | Golgi coiled coil protein GCC185 (Q8CHG3).
25 | CC(C)C(NC(CCCCN)C(=O)C[C@@H](C)C(=O)O)C(C)C (stereo partly drawn) | Mysoin heavy chain nonmuscular type (AQ62812).
26 | CCOC(=O)C(CCc1ccccc1)NC(CCCCN)C(=O)N1CCC[C@H]1C(=O)O (stereo partly drawn) [drawing 164] | Angiotensin converting enzyme (P22967); U2 nuclear ribonucleoprotein auxxiliary factor (gi 2842676).
27 | CCCCCCNC(=O)C(CCCCN)NC(C(C)C)C(C)C (stereo not drawn) [drawing 170] | Heat Shock protein 70 kDa protein 12A (Q8KOU4); Ser- ine/threonine protein kinase (O88866); Ras GTPase acti- vating protein 2 (GAP1m) (58069).
